We go through 21 compounds from US10017509B2, “Macrocylic pyrimidine derivatives” (Janssen Pharmaceutica NV, priority 2014, dated 2018).

Assay [1] concerns the target T1, EF2K (Homo sapiens, UniProt O00418).
T1 construct: host or cells: LN-229 cell lysate
T1 sequence (O00418 1-725): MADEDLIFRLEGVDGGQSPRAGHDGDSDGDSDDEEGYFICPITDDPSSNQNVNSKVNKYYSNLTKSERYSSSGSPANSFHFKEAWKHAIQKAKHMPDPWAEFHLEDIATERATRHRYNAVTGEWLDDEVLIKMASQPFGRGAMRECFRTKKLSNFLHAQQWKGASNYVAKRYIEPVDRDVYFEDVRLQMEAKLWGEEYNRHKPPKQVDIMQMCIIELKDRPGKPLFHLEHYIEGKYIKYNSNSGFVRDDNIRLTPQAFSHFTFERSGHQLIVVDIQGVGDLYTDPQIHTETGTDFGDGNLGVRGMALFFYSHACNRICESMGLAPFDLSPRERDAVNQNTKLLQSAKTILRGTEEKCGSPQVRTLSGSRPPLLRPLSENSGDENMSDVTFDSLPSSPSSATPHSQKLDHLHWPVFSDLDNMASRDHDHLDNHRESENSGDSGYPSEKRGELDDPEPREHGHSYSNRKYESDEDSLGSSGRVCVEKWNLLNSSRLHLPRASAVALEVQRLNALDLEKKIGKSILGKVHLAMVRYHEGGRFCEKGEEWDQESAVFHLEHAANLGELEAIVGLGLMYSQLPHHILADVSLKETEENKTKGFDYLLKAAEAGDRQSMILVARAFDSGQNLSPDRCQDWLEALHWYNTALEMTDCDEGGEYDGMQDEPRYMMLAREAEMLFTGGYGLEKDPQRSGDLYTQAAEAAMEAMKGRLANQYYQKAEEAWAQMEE
Put plainly: Biochemical EF2K lysate-based kinase assay (AlphaLISA p-eEF2 Thr56). As to conditions: pIC50 = -log IC50 (M), read-out: eEF2K_C_alphalisa pIC50 (converted). The text has this:
Biochemical EF2K Lysate-Based Kinase Assay
LN-229 cells were purchased from ATCC (CRL-2611); these are glioblastoma cells. Cell lysates from LN229 were used in this kinase assay to provide both the kinase and the substrate (EF2). The AlphaLISA p-eEF2 (Thr56) detection assay was developed using a sandwich assay format with two specific antibodies recognizing different epitopes of the target, including one antibody against the phosphorylation site of interest. One anti-eEF2 antibody was conjugated onto AlphaLISA Acceptor beads, while the second antibody was biotinylated and captured by streptavidin coated Donor beads.
Compound was mixed with LN-229 cell lysates in the presence of a kinase buffer (e.g. HEPES) at a pH of 6.6, containing 10 mM Mg^2+ (e.g. magnesium acetate) and 10 mM adenosine-tri-phosphate (ATP) and incubated at room temperature for 15 minutes. The kinase reaction was stopped with excess ethylenediaminetetraacetic acid disodium salt and the biotinylated-anti phospho eEF2 antibody (3 nM) was added for 1 hour. Then the anti-EF2 acceptor beads (10 μg/ml) as well as the streptavidin coated donor beads (20 μg/ml) were added for 1 hour, and the AlphaLISA signal was measured in an Envision instrument once, left overnight, and measured again for the final read.
(§1) (pIC50 is −log IC50 where IC50 represents the concentration expressed in M at which the test compound gives 50% inhibition)
(In general: Alpha assays give light when donor and acceptor beads are brought close together.)

The target in assay [2] is Vps34 (PIK3C3 lipid kinase) (Homo sapiens, UniProt Q8NEB9). Description: Biochemical Vps34 lipid kinase assay (ADP-Glo). As to conditions: for IC50: serial half-log dilution 10 μM to 0.3 nM, pIC50 = -log IC50 (M); for VPS34_1microM_% of cntrl / remaining activity at 1 µM: single dose 1 μM compound, residual activity compared to control (DMSO); for remaining activity at 1 µM: 1 h, read-out: VPS34_1microM_% of cntrl. The method, then: Biochemical Vps34 Lipid Kinase Assay
Chain of Vps34 (PIK3C3 lipid kinase) (Q8NEB9 whole entry, species assumed): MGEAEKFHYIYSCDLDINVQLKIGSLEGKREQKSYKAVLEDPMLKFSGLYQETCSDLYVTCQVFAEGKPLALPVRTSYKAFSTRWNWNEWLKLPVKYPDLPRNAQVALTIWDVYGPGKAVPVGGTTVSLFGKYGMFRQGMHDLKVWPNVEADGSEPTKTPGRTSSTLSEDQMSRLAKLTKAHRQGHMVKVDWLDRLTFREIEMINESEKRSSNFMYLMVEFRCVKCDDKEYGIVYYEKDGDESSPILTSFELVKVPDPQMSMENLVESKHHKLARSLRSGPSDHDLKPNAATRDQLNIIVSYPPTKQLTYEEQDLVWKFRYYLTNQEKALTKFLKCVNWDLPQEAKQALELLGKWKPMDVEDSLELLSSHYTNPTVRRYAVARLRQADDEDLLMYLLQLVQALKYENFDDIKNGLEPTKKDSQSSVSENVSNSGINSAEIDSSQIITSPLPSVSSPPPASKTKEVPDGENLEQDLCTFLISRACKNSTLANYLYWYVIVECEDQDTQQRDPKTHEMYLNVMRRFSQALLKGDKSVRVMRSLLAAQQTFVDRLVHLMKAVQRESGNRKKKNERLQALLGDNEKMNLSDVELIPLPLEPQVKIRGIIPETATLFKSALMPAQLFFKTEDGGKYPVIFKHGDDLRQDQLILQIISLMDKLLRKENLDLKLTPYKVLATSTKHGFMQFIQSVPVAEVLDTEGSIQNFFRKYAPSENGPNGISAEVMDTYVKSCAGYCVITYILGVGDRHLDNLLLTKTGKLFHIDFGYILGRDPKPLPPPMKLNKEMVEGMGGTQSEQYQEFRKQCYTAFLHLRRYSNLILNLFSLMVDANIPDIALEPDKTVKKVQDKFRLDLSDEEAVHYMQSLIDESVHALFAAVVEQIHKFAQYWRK
A non-radiometric kinase assay (ADP-Glo™ Assay, Promega, Madison, Wi, USA) was used for measuring the kinase activity of the PIK3C3 lipid kinase. All kinase assays were performed in 96-well half-area microtiter plates in a 25 μl reaction volume. The reaction cocktail was pipetted in 3 steps in the following order: • 10 μl of ATP solution (in assay buffer, see below) • 5 μl of test sample in 5% DMSO 10 μl of enzyme/substrate mixture
All lipid kinase assays contained 50 mM HEPES (4-(2-hydroxyethyl)-1-piperazineethanesulfonic acid)-NaOH, pH 7.5, 1 mM EGTA ((ethylene glycol tetraacetic acid), 100 mM NaCl, 0.03% CHAPS (3-[(3-Cholamidopropyl)dimethylammonio]-1-propanesulfonate), 2 mM DTT (Dithiothreitol), 20 μM ATP (corresponding to the apparent ATP-Km), kinase (7.6 nM) and substrate (50 μM). The assay for PIK3C3 additionally contained 3 mM MnCl2.
The reaction cocktails were incubated at 30° C. for 60 minutes. The reaction was stopped with 25 μl ADP-Go™ reagent per well. Plates were incubated for 40 minutes at room temperature, followed by addition of 50 μl kinase detection reagent per well and incubation for 60 minutes at room temperature. Signal was determined with a microplate luminescence reader (Victor, Perkin Elmer). The assay was either performed using a single dose of compound (1 μM final concentration in the assay reaction) with resulting data expressed as residual activity compared to control (DMSO), or using a serial (half-log) dilution of compounds starting at 10 μM and down to 0.3 nM (final concentrations in the assay) with data expressed as the pIC50.
as §1
(ADP-Glo turns the ADP formed in a reaction into a luminescent signal.)

Assay [3] deals with T1, EF2K. Put plainly: EF2K cell-based assay (P-EF2 AlphaLISA, 2-deoxyglucose stimulated MCF10A cells). As to conditions: 2.5 mM 2-deoxyglucose stimulated, P-EF2 Thr56, pIC50 = -log IC50 (M); for IC50: read-out: eEF2K_C_PThr56 pIC50 (converted). Here is the method: In this assay, 2.5 mM 2-deoxyglucose was used to deplete intracellular ATP and activate 5′ adenosine monophosphate-activated protein kinase (AMPK) in the immortalized epithelial breast cell lines, MCF10A. MCF 10A cells were purchased from ATCC (CRL-10317).
MCF10A cells are seeded at a density of 1.25×10^5 Cells/ml at 100 μl/well in a 96-well plate and incubated for 24 hours (37° C., 5% CO2). Compound is added for 1 hour, and cell are stimulated with 2.5 mM of 2-deoxy-glucose for 4 hours. Medium is then removed, and cells are lysed in an ice-cold buffer M-PER (Thermo Scientific, 78501), containing protease and phosphatase inhibitors. P-EF2 levels are determined in these lysates using the P-EF2 AlphaLISA described above.
as §1

Bounds are passed on as bounds.

Consider `O=C1CN2CCN(CC2)Cc2cccc(c2)Nc2nccc(n2)-c2ccc(nc2)NCC(O)CN1` (single isomer, unassigned) [Compound 24], for which the IC50 on EF2K [1] is ~6.46e-07 M; in assay [2] it was 1.23e-07 M; at EF2K [3] it was 1.1e-05 M. For the same compound, the VPS34_1microM_% of cntrl in assay [2] is on record as 10.54 % of cntrl.

Regarding `O=C1CN2CCN(CC2)Cc2cccc(c2)Nc2nccc(n2)-c2ccc(nc2)NCC(O)CN1` (single isomer, unassigned) [Compound 25], the IC50 at EF2K [1] was 2.88e-06 M; in assay [2], 7.76e-08 M; on EF2K [3], > 3.02e-05 M. In addition, the remaining activity at 1 µM in assay [2] was found to be 6.36%.

`O=C1CN2CCN(Cc3cccc(c3)Nc3nccc(n3)-c3ccc(nc3)NCCCN1)C(CO)C2` (single isomer, unassigned) [Compound 47]: the IC50 was < 3.02e-08 M on EF2K [1], 8.32e-08 M in assay [2] and 4.57e-06 M at EF2K [3]. Also, the VPS34_1microM_% of cntrl in assay [2] was 7.88 % of cntrl.

On to `O=C1CN2CCN(Cc3cccc(c3)Nc3nccc(n3)-c3ccc(nc3)NCCCN1)C(CO)C2` (single isomer, unassigned) [Compound 48], for which the IC50 on EF2K [1] is 5.5e-06 M; in assay [2], 4.27e-08 M; on EF2K [3] it was > 3.02e-05 M. Further, the VPS34_1microM_% of cntrl in assay [2] is on record as 3.34 % of cntrl.

On to `CN1CCCN(C)c2ccc(cn2)-c2ccnc(n2)Nc2cccc(c2)CN2CCN(CC1=O)CC2CO` (single isomer, unassigned) [Compound 52], for which the IC50 at EF2K [1] is 9.12e-07 M; in assay [2] it was 3.98e-07 M; at EF2K [3], > 3.02e-05 M. The remaining activity at 1 µM in assay [2] was determined as 12.8%.

On to `CN1CCCN(C)c2ccc(cn2)-c2ccnc(n2)Nc2cccc(c2)CN2CCN(CC1=O)CC2CO` (single isomer, unassigned) [Compound 53], for which the IC50 at EF2K [1] was 3.39e-08 M. In assay [2], the IC50 was 2.75e-07 M and the VPS34_1microM_% of cntrl is listed as 13.15 % of cntrl. Moreover, the “eEF2K_C_PThr56 pIC50” value on EF2K [3] is recorded as <4.52.

With `CC1CN2CCN1Cc1cccc(c1)Nc1nccc(n1)-c1ccc(nc1)NCCCNC(=O)C2` (single isomer, unassigned) [Compound 61], the IC50 is 1.32e-06 M on EF2K [1], 4.47e-08 M in assay [2] and > 3.02e-05 M at EF2K [3]. In addition, the VPS34_1microM_% of cntrl in assay [2] was 6.78 % of cntrl.

For the compound `CC1CN2CCN1Cc1cccc(c1)Nc1nccc(n1)-c1ccc(nc1)NCCCNC(=O)C2` (single isomer, unassigned) [Compound 62], the results for the IC50 on EF2K [1] and at EF2K [3] were 7.76e-08 M and 2.04e-06 M, respectively. For the same compound, the VPS34_1microM_% of cntrl in assay [2] is recorded as 166.89 % of cntrl.

Consider `O=C1CN2CCN(CC2)Cc2cccc(c2)Nc2nccc(n2)-c2ccc(nc2)N2CC(O)CC2CCN1` (single isomer, unassigned) [Compound 89], for which the results for the IC50 (on EF2K [1]; in assay [2]; at EF2K [3]) were ~6.31e-06 M, 4.68e-08 M and > 3.02e-05 M, respectively. Further, the remaining activity at 1 µM in assay [2] turned out to be 13.6%.

`O=C1CN2CCN(CC2)Cc2cccc(c2)Nc2nccc(n2)-c2ccc(nc2)N2CC(O)CC2CCN1` (single isomer, unassigned) [Compound 90]: the IC50 at EF2K [1] was 9.33e-06 M; in assay [2] it was 2.09e-07 M; on EF2K [3] it was > 3.02e-05 M. For the same compound, in assay [2], the VPS34_1microM_% of cntrl is 15.81 % of cntrl.

With `O=C1CN2CCN(CC2)Cc2cccc(c2)Nc2nccc(n2)-c2ccc(nc2)N2CC(O)CC2CCN1` (single isomer, unassigned) [Compound 91], the IC50 on EF2K [1] was 1.17e-08 M; in assay [2], 5.13e-06 M; on EF2K [3], 1.41e-06 M.

For `CN1CCCN(C)c2ccc(cn2)-c2ccnc(n2)Nc2cccc(c2)CN2CCN(CC1=O)C(CO)C2` (single isomer, unassigned) [Compound 95], the IC50 was 8.32e-07 M on EF2K [1], 3.47e-07 M in assay [2] and > 3.02e-05 M at EF2K [3]. In addition, the remaining activity at 1 µM in assay [2] is 18.8%.

With `O=C1CN2CCN(CC2)Cc2cccc(c2)Nc2nccc(n2)-c2ccc(nc2)N2CC(O)CC2CCN1` (single isomer, unassigned) [Compound 96], the IC50 is 6.76e-09 M on EF2K [1], 1.32e-07 M in assay [2] and 1.26e-06 M on EF2K [3].

Regarding `CN1CCCN(C)c2ccc(cn2)-c2ccnc(n2)Nc2cccc(c2)CN2CCN(CC1=O)CC2COCCN1CCOCC1` (single isomer, unassigned) [Compound 99], the IC50 on EF2K [1] is 2.4e-06 M; in assay [2] it was 1.51e-06 M; on EF2K [3], > 3.02e-05 M.

With `CN1CCCN(C)c2ccc(cn2)-c2ccnc(n2)Nc2cccc(c2)CN2CCN(CC1=O)CC2COCCN1CCOCC1` (single isomer, unassigned) [Compound 100], the IC50 is 6.46e-08 M on EF2K [1] and 1.48e-05 M on EF2K [3]. The remaining activity at 1 µM in assay [2] came out at 43%.

For `CN1CCCN(C)c2ccc(cn2)-c2ccnc(n2)Nc2cccc(c2)CN2CCN(CC1=O)CC2COCCO` (single isomer, unassigned) [Compound 104], the IC50 on EF2K [1] was 1.78e-05 M; in assay [2], 3.02e-07 M; on EF2K [3], > 3.02e-05 M. Besides, the remaining activity at 1 µM in assay [2] amounted to 25.1%.

In the case of `CN1CCN(C)c2ccc(cn2)-c2ccnc(n2)Nc2cccc(c2)CN2CCNC(C2)C1=O` (stereo not shown) [Compound 68], the IC50 is 2e-05 M on EF2K [1] and 7.76e-07 M in assay [2]. For the same compound, the remaining activity at 1 µM in assay [2] is 28.4%.

Take `CN1CCN(C)c2ccc(cn2)-c2ccnc(n2)Nc2cccc(c2)CN2CCN(C)C(C2)C1=O` (stereo not shown) [Compound 69]: the IC50 on EF2K [1] is > 3.02e-05 M. Moreover, in assay [2], the remaining activity at 1 µM turned out to be 22.8% and the IC50 was 2.24e-06 M.

For the compound `CN1CCCN(C)c2ccc(cn2)-c2ccnc(n2)Nc2cccc(c2)CN2CCNC(C2)C1=O` (stereo not shown) [Compound 74], at EF2K [1], the IC50 was 2.04e-05 M. Moreover, in assay [2], the remaining activity at 1 µM was 20.7% and the IC50 is 4.79e-07 M.

With `CN1CCCN(C)c2ccc(cn2)-c2ccnc(n2)Nc2cccc(c2)CN2CCN(CC2)C1=O` [Compound 76], at EF2K [1], the IC50 is 2.34e-07 M. In assay [2], the remaining activity at 1 µM turned out to be 8.71% and the IC50 is 3.47e-07 M.

As to `CC(C)N1CCN(C(C)C)c2ccc(cn2)-c2ccnc(n2)Nc2cccc(c2)CN2CCN(CC2)CC1=O` [Compound 121], the IC50 at EF2K [1] was 1.78e-05 M. Besides, the remaining activity at 1 µM in assay [2] was found to be 34.1%.
